For test [1], the target named is Phosphatidylethanolamine-binding protein 1 (Homo sapiens, UniProt P30086).
Test [2] deals with Focal adhesion kinase 1 (Homo sapiens, UniProt Q05397).
In test [3] the target is Mitogen-activated protein kinase 14 (Homo sapiens, UniProt Q16539).
The target of test [4] is Epidermal growth factor receptor (Homo sapiens, UniProt P00533).
In test [5] the target is Proto-oncogene tyrosine-protein kinase receptor Ret (Homo sapiens, UniProt P07949).
Test [6] deals with PAS domain-containing serine/threonine-protein kinase (Homo sapiens, UniProt Q96RG2).
PAS domain-containing serine/threonine-protein kinase, sequence (Q96RG2 whole entry, the tested form may be a part): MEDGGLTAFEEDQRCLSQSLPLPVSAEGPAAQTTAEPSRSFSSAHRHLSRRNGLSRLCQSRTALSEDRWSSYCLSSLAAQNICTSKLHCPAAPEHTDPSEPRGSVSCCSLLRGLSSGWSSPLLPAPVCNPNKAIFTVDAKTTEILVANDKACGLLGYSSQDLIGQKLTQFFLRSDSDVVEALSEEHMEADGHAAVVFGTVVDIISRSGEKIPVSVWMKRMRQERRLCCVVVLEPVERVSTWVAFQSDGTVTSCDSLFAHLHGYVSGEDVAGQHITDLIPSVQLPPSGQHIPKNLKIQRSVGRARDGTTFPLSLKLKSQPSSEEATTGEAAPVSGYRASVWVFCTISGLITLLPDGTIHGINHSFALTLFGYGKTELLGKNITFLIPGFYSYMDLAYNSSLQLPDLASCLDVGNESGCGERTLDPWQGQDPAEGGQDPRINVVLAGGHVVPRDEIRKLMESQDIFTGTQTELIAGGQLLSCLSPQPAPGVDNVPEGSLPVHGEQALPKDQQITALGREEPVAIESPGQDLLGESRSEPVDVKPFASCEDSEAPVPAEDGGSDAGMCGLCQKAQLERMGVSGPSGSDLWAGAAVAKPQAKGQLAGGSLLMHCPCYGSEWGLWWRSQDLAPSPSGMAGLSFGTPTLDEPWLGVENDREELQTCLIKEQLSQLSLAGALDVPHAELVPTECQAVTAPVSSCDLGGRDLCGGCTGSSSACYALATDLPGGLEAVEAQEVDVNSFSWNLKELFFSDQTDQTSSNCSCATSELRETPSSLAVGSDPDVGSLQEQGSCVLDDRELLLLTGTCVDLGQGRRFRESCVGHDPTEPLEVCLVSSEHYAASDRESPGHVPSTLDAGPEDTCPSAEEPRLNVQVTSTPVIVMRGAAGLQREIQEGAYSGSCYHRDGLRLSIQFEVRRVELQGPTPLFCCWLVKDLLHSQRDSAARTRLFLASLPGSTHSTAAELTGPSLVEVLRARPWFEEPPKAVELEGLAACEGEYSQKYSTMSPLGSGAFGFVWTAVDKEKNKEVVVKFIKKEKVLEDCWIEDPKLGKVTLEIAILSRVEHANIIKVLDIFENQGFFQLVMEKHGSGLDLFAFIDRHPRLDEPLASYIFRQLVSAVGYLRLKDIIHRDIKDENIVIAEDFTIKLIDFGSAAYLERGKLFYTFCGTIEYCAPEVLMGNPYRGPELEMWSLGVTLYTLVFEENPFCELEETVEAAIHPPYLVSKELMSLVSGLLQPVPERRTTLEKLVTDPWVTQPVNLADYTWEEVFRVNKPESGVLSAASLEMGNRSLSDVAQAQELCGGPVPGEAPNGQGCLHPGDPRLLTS
Test [7] has as its target High affinity nerve growth factor receptor (Homo sapiens, UniProt P04629).
The target of test [8] is DNA topoisomerase 2-alpha (Homo sapiens, UniProt P11388).
DNA topoisomerase 2-alpha, sequence (P11388 whole entry): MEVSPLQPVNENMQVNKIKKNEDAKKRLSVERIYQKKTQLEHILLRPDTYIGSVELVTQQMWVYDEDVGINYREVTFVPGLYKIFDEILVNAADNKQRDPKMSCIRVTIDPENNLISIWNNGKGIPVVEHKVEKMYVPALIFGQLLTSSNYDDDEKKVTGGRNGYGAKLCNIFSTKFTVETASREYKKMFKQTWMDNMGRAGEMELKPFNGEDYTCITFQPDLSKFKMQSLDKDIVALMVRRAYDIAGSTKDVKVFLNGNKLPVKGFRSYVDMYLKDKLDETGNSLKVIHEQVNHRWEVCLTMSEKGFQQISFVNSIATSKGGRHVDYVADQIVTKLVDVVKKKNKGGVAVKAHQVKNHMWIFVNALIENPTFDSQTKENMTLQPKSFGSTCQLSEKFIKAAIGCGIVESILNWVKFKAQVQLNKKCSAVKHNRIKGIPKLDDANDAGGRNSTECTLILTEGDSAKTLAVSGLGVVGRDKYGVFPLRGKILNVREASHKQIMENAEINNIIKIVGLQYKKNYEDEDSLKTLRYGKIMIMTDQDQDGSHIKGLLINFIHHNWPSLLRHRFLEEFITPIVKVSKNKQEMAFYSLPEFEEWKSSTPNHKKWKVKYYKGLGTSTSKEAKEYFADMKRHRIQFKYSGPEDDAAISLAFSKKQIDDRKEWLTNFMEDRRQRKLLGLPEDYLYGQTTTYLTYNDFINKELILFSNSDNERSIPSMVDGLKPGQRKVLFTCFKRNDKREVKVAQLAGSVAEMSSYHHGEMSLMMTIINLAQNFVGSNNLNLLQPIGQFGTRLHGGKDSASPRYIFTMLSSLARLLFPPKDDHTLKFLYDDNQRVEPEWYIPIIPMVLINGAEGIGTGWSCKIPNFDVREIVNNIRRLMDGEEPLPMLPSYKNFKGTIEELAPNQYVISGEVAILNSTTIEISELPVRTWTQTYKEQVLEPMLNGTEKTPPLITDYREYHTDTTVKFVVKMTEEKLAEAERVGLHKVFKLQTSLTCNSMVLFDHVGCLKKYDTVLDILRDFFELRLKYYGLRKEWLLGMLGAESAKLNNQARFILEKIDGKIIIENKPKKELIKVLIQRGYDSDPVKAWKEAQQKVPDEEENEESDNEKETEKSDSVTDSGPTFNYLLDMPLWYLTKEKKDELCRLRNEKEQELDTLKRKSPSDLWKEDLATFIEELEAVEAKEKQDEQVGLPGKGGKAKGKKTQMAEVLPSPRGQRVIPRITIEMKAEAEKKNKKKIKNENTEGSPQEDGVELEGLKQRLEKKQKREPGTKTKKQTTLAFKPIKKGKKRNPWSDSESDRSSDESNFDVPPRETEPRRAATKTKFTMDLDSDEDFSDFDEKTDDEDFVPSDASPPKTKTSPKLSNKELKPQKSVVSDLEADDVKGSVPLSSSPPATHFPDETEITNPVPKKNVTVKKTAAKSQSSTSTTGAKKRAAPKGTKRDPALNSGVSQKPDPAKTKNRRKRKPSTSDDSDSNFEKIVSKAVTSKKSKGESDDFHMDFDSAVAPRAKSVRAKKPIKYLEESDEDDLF
Test [9] deals with Membrane-associated progesterone receptor component 1 (Homo sapiens, UniProt O00264).
Test [10] concerns the target MAP kinase-activated protein kinase 3 (Homo sapiens, UniProt Q16644).
Test [11] has as its target Cell division cycle 7-related protein kinase (Homo sapiens, UniProt O00311).
Test [12] deals with Serine/threonine-protein kinase N3 (Homo sapiens, UniProt Q6P5Z2).
For test [13], the target named is Glycogen synthase kinase-3 beta (Homo sapiens, UniProt P49841).
Test [14] has as its target T1, Receptor-type tyrosine-protein kinase FLT3 (Homo sapiens, UniProt P36888).
T1 sequence (P36888 whole entry): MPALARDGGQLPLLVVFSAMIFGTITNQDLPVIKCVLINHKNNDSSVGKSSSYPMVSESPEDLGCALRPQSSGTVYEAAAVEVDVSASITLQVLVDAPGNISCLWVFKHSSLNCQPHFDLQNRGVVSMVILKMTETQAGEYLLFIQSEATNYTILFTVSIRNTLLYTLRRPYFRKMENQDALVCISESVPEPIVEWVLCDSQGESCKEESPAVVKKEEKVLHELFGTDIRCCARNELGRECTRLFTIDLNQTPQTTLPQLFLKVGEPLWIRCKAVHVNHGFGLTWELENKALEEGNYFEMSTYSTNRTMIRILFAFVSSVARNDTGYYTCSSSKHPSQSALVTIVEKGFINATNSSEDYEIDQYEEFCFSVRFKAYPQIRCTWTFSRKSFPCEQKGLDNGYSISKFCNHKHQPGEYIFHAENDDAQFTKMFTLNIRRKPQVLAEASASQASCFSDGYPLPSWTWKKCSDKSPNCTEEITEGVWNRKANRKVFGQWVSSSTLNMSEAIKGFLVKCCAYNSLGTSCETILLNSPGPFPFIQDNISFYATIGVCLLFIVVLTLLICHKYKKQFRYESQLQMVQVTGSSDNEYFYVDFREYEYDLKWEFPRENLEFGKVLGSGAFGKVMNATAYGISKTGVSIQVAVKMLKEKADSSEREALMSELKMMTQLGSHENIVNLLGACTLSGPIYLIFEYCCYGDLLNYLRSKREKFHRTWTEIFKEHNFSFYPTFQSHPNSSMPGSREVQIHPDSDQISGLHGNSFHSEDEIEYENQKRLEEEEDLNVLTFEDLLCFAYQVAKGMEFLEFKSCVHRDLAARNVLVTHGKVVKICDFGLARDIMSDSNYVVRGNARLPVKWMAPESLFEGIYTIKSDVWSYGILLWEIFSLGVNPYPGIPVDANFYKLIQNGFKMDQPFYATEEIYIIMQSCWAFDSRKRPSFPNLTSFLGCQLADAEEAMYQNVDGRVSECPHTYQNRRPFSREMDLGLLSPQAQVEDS

The target of test [15] is T2, Thyroid hormone receptor-associated protein 3 (Homo sapiens, UniProt Q9Y2W1).
T2 sequence (Q9Y2W1 whole entry): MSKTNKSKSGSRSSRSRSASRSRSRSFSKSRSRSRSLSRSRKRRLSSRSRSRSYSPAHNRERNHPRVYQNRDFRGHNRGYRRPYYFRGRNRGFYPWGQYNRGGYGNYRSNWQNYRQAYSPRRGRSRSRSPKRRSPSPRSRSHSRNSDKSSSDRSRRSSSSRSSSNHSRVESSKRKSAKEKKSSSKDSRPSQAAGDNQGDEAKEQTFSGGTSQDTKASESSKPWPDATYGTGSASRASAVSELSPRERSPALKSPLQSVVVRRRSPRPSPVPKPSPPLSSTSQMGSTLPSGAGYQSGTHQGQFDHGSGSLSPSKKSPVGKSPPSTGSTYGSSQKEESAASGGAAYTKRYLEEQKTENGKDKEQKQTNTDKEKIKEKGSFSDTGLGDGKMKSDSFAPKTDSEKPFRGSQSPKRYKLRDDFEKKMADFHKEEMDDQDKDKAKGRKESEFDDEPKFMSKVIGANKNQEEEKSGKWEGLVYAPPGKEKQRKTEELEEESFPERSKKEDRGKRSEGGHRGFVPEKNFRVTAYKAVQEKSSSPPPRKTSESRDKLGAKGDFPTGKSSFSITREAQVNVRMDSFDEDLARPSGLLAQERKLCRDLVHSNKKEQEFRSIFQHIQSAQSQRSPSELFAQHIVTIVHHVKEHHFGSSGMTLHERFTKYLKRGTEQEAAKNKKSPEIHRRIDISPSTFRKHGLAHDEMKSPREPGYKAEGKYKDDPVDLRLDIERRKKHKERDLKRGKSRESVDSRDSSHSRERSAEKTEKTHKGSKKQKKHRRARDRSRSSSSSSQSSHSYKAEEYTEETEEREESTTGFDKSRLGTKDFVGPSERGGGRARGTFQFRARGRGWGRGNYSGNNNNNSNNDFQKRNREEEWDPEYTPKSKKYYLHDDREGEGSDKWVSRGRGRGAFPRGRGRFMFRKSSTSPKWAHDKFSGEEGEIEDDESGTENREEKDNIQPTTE

Test [16] has as its target Serine/threonine-protein kinase pim-2 (Homo sapiens, UniProt Q9P1W9).
For test [17], the target named is Dual specificity testis-specific protein kinase 1 (Homo sapiens, UniProt Q15569).
Dual specificity testis-specific protein kinase 1, sequence (Q15569 whole entry): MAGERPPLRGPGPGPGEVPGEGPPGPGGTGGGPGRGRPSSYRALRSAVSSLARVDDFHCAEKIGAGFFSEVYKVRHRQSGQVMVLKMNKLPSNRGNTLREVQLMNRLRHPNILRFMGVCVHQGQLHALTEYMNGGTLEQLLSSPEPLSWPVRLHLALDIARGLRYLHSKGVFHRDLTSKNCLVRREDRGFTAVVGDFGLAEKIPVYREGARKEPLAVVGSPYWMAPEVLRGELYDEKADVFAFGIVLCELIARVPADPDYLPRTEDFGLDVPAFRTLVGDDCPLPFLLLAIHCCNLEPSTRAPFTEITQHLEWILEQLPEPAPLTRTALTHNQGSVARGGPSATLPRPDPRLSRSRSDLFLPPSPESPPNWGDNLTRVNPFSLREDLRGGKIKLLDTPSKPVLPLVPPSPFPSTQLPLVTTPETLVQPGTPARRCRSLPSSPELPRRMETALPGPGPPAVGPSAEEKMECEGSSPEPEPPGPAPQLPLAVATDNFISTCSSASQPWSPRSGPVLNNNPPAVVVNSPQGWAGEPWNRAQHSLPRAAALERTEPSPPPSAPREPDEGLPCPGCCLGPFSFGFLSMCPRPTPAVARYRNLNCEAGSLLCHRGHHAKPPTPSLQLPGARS
In test [18] the target is Dual specificity protein kinase CLK3 (Homo sapiens, UniProt P49761). Format: subcellular, K-562, COLO 205, SK-N-BE(2) and MV-4-11, Cell lysate. The following applies: read-out: Kd apparent.

Drawing on ChEMBL document CHEMBL3991601, “The target landscape of clinical kinase drugs” (Science, 2017), this text covers Kd for nine compounds.

Structures are written as SMILES. Active and inactive are the calls of the source.
Note: in the data inactive means no Kd found up to 30 µM.

Mitogen-activated protein kinase 14, sequence (Q16539 whole entry): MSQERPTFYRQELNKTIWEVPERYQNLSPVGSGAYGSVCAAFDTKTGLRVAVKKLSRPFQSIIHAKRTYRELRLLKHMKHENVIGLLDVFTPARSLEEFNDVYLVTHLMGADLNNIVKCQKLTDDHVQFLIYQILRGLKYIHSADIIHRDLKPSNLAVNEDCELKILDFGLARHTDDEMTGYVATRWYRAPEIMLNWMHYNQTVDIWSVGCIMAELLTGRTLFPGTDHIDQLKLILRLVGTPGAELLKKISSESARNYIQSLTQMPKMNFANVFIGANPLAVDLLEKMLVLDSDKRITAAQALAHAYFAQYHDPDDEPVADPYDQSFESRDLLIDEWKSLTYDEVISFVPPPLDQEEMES
Serine/threonine-protein kinase pim-2, sequence (Q9P1W9 whole entry): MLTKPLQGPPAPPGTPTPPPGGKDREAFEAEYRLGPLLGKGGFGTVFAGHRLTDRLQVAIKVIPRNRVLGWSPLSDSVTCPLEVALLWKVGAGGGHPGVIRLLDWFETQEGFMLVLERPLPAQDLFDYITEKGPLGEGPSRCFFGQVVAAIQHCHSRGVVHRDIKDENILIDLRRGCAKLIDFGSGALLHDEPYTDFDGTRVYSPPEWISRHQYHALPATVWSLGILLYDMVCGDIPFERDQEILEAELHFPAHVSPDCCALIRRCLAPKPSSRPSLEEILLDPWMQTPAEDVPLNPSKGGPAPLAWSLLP
High affinity nerve growth factor receptor, sequence (P04629 whole entry): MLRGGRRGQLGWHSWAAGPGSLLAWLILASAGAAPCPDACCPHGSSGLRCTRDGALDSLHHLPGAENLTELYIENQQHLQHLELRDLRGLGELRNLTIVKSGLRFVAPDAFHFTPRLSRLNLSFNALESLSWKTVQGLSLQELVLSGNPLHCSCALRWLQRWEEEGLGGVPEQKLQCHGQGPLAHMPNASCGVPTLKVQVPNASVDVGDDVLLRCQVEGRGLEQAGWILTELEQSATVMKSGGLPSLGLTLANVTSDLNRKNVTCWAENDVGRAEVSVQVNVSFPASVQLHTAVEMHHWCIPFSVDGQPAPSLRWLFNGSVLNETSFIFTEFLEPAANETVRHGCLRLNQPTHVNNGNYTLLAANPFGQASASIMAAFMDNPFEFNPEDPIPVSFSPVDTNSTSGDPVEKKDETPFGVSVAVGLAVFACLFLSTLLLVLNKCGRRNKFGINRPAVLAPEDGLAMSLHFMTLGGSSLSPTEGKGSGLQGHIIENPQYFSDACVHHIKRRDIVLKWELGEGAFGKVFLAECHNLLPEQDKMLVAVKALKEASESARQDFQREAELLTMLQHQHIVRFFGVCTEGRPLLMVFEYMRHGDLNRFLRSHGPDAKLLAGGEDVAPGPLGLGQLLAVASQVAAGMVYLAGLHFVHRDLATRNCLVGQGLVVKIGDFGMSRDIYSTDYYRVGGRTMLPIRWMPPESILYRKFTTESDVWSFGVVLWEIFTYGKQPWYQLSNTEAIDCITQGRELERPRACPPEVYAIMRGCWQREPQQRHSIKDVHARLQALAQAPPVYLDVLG

For `S=C(NCc1ccc2c(c1)OCO2)N1CCN(c2ncnc3c2oc2ccccc23)CC1` [AMUVATINIB], the Kd in test [1], in test [2], in test [3], in test [4], in test [5] and in test [6] was > 30 µM (inactive) throughout. Besides, the Kd in test [7], in [8], in test [9], in test [10], in [11] and in [12] was > 30 µM (inactive) in each case. Moreover, the Kd in test [13], in test [14] and in test [15] was > 30 µM (inactive) throughout.

For `COc1cccc2cc(-c3nc([C@H]4CC[C@H](C(=O)O)CC4)n4ncnc(N)c34)[nH]c12` [OSI-027], the Kd in test [16] is > 30 µM (inactive); in test [1] it was > 30 µM (inactive); in test [2], > 30 µM (inactive); in test [3], > 30 µM (inactive); in [4] it was > 30 µM (inactive); in [5] it was 0.057 µM (active). The Kd in test [7], in test [8], in test [9], in test [10], in [13] and in [14] was > 30 µM (inactive) each time. For the same compound, in test [15], the Kd was > 30 µM (inactive).

Regarding `Cn1c(=O)n(-c2ccc(C(C)(C)C#N)cc2)c2c3cc(-c4cnc5ccccc5c4)ccc3ncc21` [DACTOLISIB], the Kd in test [17], in test [1], in test [4], in test [8], in test [9] and in test [10] was > 30 µM (inactive) in each case. Further, the Kd in test [12] and in test [15] was > 30 µM (inactive) throughout.

Turning to `C[C@@]1(C(=O)Nc2ccc(F)nc2)CCCN1c1nc(Nc2cc(C3CC3)n[nH]2)c2cccn2n1` [BMS-754807], the Kd in [1], in test [8], in test [10] and in test [15] was > 30 µM (inactive) each time.

For the compound `O=C(Nc1ccc(OC(F)(F)F)cc1)c1sccc1NCc1ccnc2ccccc12` [OSI-930], the Kd was > 30 µM (inactive) in test [16]; > 30 µM (inactive) in test [17]; > 30 µM (inactive) in [2]; > 30 µM (inactive) in [3]; > 30 µM (inactive) in test [4]; 0.388 µM (active) in test [5]. Besides, the Kd in test [6], in [7], in test [8], in test [9], in [11] and in test [12] was > 30 µM (inactive) in each case. Also, the Kd in [13], in [14], in [15] and in test [18] was > 30 µM (inactive) in each case.

`NC(=O)c1ccc(N(C(N)=O)c2c(F)cccc2F)nc1-c1ccc(F)cc1F` [VX-702]: the Kd in test [17], in test [1], in test [2], in test [4], in [5] and in test [6] was > 30 µM (inactive) each time. The Kd in [7], in [8], in test [9], in test [10], in [12] and in test [13] was > 30 µM (inactive) in each case. Also, the Kd in test [14] and in [15] was > 30 µM (inactive) each time.

For the compound `C=CCn1c(=O)c2cnc(Nc3ccc(N4CCN(C)CC4)cc3)nc2n1-c1cccc(C(C)(C)O)n1` [ADAVOSERTIB], the Kd in test [16], in test [17], in test [1], in test [4], in test [6] and in test [8] was > 30 µM (inactive) in each case. In addition, the Kd in test [9], in [11], in test [12], in test [15] and in [18] was > 30 µM (inactive) each time.

On to `CN(C)C/C=C/C(=O)Nc1cc2c(Nc3ccc(F)c(Cl)c3)ncnc2cc1O[C@H]1CCOC1` [AFATINIB], for which the Kd in test [1], in test [6], in [8], in test [9], in [10] and in test [11] was > 30 µM (inactive) throughout. Also, the Kd in test [12] and in [15] was > 30 µM (inactive) in each case.

Take `COc1cc2ncnc3c2cc1OCCCCCN(C)Cc1ccc(Br)cc1N3` [JNJ-26483327]: the Kd was > 30 µM (inactive) in [17]; > 30 µM (inactive) in [1]; > 30 µM (inactive) in test [2]; > 30 µM (inactive) in test [3]; 0.602 µM (active) in test [4]; 2.42 µM (active) in test [5]. In addition, the Kd in [7], in test [8], in test [10], in [13], in [14] and in [15] was > 30 µM (inactive) in each case.
